Drawing on ChEMBL document CHEMBL1146810, “Synthesis of a bromotyrosine-derived natural product inhibitor of mycothiol-S-conjugate amidase” (Bioorg Med Chem Lett, 2004), this text covers Inhibition for one compound.

Assay [1] can be described thus: Inhibitory activity against AcGI deacetylase was determined.
In assay [2] the test system is Mycobacterium tuberculosis. In words: Inhibitory activity against mycothiol-S-conjugate amidase (MCA) was determined.

Turning to `NCCCOc1c(Br)cc(C/C(=N\O)C(=O)NCCCCN=C(N)N)cc1Br`, the results for the Inhibition in assay [1] and in assay [2] were 150 µM and 30 µM, respectively.
